This note sets out measurements from ChEMBL document CHEMBL3217504, “Potent growth inhibitory activity of ()-platencin towards multi-drug-resistant and extensively drug-resistant Mycobacterium tuberculosis” (2013).

≈ marks a conversion by molar mass, not a printed value.

What is called MIC is the smallest concentration in the dilution series that meets the test's criterion for growth inhibition. A low value points to inhibition by little substance.

Common to all, as to format: functional
The subject of test [1] is Mycobacterium tuberculosis. The test can be described thus: Antimycobacterial activity against streptomycin, ethambutol, kanamycin, isoniazid, rifabutin, rifampicin, levofloxacin, and ciprofloxacin-resistant Mycobacterium tuberculosis LV19 by microbroth dilution method.
The subject of test [2] is Mycobacterium tuberculosis. The test can be described thus: Antimycobacterial activity against isoniazid, rifampicin, and rifabutin-resistant Mycobacterium tuberculosis LV2 by microbroth dilution method. In general terms: In broth dilution the organism is exposed to a series of concentrations in liquid medium.
Test [3] concerns Mycobacterium tuberculosis. The test can be described thus: Ratio of MBC99.9 to MIC for streptomycin, ethambutol, kanamycin, isoniazid, rifabutin, rifampicin, levofloxacin, and ciprofloxacin-resistant Mycobacterium tuberculosis LV19.
Test [4] deals with Mycobacterium tuberculosis. The test can be described thus: Ratio of MBC99.9 to MIC for isoniazid, rifampicin, and rifabutin-resistant Mycobacterium tuberculosis LV2.

As for `C=C1C[C@@]23C=CC(=O)[C@@](C)(CCC(=O)Nc4c(O)ccc(C(=O)O)c4O)[C@@H]2C[C@@H]1CC3` (racemic) [PLATENCIN], the MIC in test [1] and in test [2] was 1 µg/mL (≈ 2.35 µM) in each case. Moreover, the Ratio in test [3] and in test [4] was above 64 in each case.
